This is an account of results in patent publication US20260138961A1, “MODULATORS OF MITOCHONDRIAL DNA REPLICATION” (Pretzel Therapeutics, Inc., priority 2022, published 2026).

By AC50 is commonly meant the concentration at which the activity in the assay is half-maximal.

Molecules are shown by their SMILES.

The target in this assay is T1, POLγA:R309C (Homo sapiens, UniProt P54098, R309C).
T1 sequence (P54098 1-1239 R309C): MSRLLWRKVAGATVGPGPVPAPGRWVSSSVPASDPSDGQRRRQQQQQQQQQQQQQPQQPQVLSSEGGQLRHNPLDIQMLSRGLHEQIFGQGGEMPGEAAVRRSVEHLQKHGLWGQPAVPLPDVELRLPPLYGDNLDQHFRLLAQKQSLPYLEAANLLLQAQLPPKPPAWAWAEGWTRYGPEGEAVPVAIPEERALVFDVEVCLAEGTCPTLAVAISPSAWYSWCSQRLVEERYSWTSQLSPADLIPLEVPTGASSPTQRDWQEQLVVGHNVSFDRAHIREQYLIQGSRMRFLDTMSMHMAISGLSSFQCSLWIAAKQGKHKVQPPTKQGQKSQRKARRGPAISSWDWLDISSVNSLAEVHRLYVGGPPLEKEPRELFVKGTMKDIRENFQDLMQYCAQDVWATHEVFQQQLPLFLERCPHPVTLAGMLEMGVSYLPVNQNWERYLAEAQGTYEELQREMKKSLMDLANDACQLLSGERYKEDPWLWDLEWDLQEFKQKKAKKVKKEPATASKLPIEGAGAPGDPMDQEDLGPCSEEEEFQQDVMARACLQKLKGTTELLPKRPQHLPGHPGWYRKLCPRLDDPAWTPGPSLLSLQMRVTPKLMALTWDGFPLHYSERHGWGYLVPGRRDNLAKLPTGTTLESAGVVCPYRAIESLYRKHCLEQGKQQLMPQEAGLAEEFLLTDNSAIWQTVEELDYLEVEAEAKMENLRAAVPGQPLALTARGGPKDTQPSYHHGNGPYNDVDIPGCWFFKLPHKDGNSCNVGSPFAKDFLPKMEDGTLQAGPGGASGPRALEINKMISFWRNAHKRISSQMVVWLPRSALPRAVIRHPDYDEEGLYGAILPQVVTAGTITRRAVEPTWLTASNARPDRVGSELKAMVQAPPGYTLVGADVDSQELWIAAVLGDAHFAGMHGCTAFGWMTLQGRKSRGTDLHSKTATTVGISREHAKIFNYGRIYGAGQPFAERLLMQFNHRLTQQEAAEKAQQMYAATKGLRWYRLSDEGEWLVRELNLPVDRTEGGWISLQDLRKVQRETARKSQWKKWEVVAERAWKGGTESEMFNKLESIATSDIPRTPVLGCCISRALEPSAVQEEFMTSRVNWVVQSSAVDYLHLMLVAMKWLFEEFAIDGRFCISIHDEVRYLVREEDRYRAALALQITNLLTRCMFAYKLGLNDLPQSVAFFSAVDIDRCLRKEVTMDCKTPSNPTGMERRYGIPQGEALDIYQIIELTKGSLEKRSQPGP
T1 sequence (Q9UHN1 1-485 partner): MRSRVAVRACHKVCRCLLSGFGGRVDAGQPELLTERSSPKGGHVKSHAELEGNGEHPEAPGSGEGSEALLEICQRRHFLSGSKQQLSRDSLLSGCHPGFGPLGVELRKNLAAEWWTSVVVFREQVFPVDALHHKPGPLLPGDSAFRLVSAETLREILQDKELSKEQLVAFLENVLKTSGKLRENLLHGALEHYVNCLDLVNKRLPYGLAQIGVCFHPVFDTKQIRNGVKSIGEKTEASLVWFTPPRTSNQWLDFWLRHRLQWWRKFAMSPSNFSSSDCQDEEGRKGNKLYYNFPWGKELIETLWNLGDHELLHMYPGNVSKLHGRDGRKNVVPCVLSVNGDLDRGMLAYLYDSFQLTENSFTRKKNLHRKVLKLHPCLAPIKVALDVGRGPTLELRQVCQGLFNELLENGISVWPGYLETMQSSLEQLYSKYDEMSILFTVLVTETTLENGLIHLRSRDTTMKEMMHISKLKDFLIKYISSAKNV
Briefly: DNA polymerization assay, POLγA:R309C mutant. In kind it is biochemical. The note with it: stimulation of polymerase activity, primed M13mp18 ssDNA, 37° C. 2 hours. The procedure:
DNA Polymerization Assay to Monitor Effects on Human Wildtype POLγ and Four Disease-Causing Mutant Variants of Human POLγ.
The ability of small molecules to stimulate the polymerase activity of POLγ was analyzed in a quantitative fluorescence SYBR Green I assay with fluorescence intensity (FI) readout.
In the presence of dNTPs, wild type human POLγ and mutant derivatives thereof were incubated with single-stranded, circular M13mp18 ssDNA hybridized to a short DNA oligonucleotide that functions as a primer for initiation of DNA synthesis. POLγ and mutant derivatives thereof will extend the primer and use the M13mp18 molecule as a template to synthesize long stretches of double-stranded DNA. SYBR Green I, which is a double-stranded DNA-binding dye, was used to quantify formation of double-stranded DNA in the reaction. When bound to double-stranded DNA, SYBR Green I fluorescence increases by up to 100-fold.
The assay was performed in the 384-well plate format. Upon addition of compounds, changes in double-stranded DNA synthesis activity can be monitored by following effects on fluorescent intensity.
The reactions also contained the accessory POLγB subunit, and the human mitochondrial single-stranded DNA binding protein (mtSSB).
The DNA template mixture used in the assay contained 0.5 nM primed M13 mp18 ssDNA, 400 nM mtSSB, 0.1 mM Tris-HCl (pH 8.0), 0.1 mM dNTP, 10 mM MgCl2, 0.1 mg/mL BSA, 1 mM TCEP solution, and 0.02% Triton X-100. The DNA template mixture for the wild type protein contained either 100 μM dNTP, 1 μM dNTP, or 0.1 μM dNTP, designated in Table 2 as 100 μM, 1 μM, and 0.1 μM, respectfully.
Microplates with compounds (0.1 μL in each well) to be tested in the assay were prepared from 10 mM compound stocks in 100% DMSO, and equal amounts of DMSO without any compound were added to positive and negative control wells.
The protein mixture was dispensed (5 μL into each well) into compound plates and incubated at 37° C. for 15 minutes. After incubation, 5 μL of the DNA template mixture was dispensed into each well. The plates were then incubated at 37° C. for 2 hours.
During incubation, a combined stop buffer and detection reagent solution was prepared. The buffer contained 25 mM EDTA (pH 8.0), 0.02% Triton X-100, and SYBR Green I [Invitrogen] diluted 10,000× (for fluorescent readout). EDTA will stop the enzymatic reaction by chelating magnesium ions.
In the case of `Cc1cc(S(=O)(=O)Nc2cccc(-c3ncc(CO)s3)c2)c(C)cc1Cl` [Example 89, 4-chloro-N-(3-(5-(hydroxymethyl)thiazol-2-yl)phenyl)-2,5-dimethylbenzenesulfonamide], the half-maximal activity concentration (AC50) stood at 4 µM. As to `Cc1cc(S(=O)(=O)Nc2csc(-c3ccccc3)n2)c(C)cc1Cl` [Example 81, 4-chloro-2,5-dimethyl-N-(2-phenylthiazol-4-yl)benzenesulfonamide], the AC50 was found to be 0.6 µM. The figure for `Cc1nc2ccc(NS(=O)(=O)c3cc(C)c(Cl)cc3C)cc2s1` [Example 73, 4-chloro-2,5-dimethyl-N-(2-methylbenzo[d]thiazol-6-yl)benzenesulfonamide] is 1 µM. The figure for `Cc1csc(-c2ccccc2NS(=O)(=O)c2cc(C)c(Cl)cc2C)n1` [Example 80, 4-chloro-2,5-dimethyl-N-(2-(4-methylthiazol-2-yl)phenyl)benzenesulfonamide] is more than 100 µM; for `Cc1cc(S(=O)(=O)Nc2cccc(-c3ncc(CN(C)C)s3)c2)c(C)cc1Cl` [Example 87, 4-chloro-N-(3-(5-((dimethylamino)methyl)thiazol-2-yl)phenyl)-2,5-dimethylbenzenesulfonamide] it is 6 µM. For the compound `Cc1cc(S(=O)(=O)Nc2ccc3ccn(C)c3c2)c(C)cc1Cl` [Example 72, 4-chloro-2,5-dimethyl-N-(1-methyl-1H-indol-6-yl)benzenesulfonamide], half-maximal activity (AC50) was put at 30 µM. Against the preceding compound, the AC50 is about 5-fold higher.

With `Cc1cc(S(=O)(=O)Nc2cccc(-c3ncc(C4CC4)s3)c2)c(C)cc1Cl` [Example 76, 4-chloro-N-(3-(5-cyclopropylthiazol-2-yl)phenyl)-2,5-dimethylbenzenesulfonamide], the AC50 amounted to 6 µM. This AC50 lies about 5-fold lower than the previous one.
